Test results as given in patent EP4796125A1, “TREATMENT OF PATIENT WITH NEGATIVE P53 GENE MUTATION, POSITIVE KRAS GENE MUTATION AND POSITIVE BRCA MUTATION” (Ascentawits Pharmaceuticals, Ltd., priority 2023, dated 2025).

Experiments:
H460 cells = test: Cell cycle G2/M arrest, PI staining and flow cytometry; type: cell-based
Description: • 1) H460/HPAF-II cell suspensions were added to a 24-well plate, with a cell density of 100000 cells/well and 995 µL of medium per well. • 2) The cells were cultured overnight in a 37°C, 5% CO2 incubator. • 3) Compound Treatment
24 hours after cell plating, according to the protocol, the experimental groups for each cell line were as follows: Monotherapy: 24 hours after cell plating, 5 µL of test compounds at different concentrations was added: 1% DMSO, 5 µM Nutlin-3, and 0.1 nM AST-3424. The plate was gently shaken to ensure even mixing, and then placed in a 37°C, 5% CO2 incubator.
• Cells were pretreated with AST-3424 for 2 hours, and then co-treatment with Nutlin-3 for 24 hours; • cells were pretreated with Nutlin-3 for 2 hours, and then co-treatment with AS -3424 for 24 hours; and • cells were co-treated with AST-3424 and Nutlin-3 for 24 hours. • 4) The cells were digested, centrifuged at 1000 g at 4°C, washed once with pre-cooled PBS, centrifuged at 1000 g at 4°C, and fixed with 1 mL of pre-cooled 70% ethanol at - 20°C overnight. • 5) The cells were centrifuged at 3000 g at 4°C, washed once with pre-cooled PBS (phosphate buffer), and centrifuged at 3000g at 4°C. PI staining solution was prepared. The cells were stained at 37°Cfor 30 minutes (protected from light), and stored in an ice bath (protected from light). The cells were detected using a flow cytometer on the same day, and the proportions of cells in different cell cycle phases was analyzed using FlowJo.
The remaining operations were similar to those of the above experiment, and the compound treatment was as follows: […]

A549 cells = test: as above; type: cell-based; conditions: 0.3-9 nM AST-3424 ± 5 µM Nutlin-3 (AST-3424 pre-treatment 2 hours), second experiment (Figure 10)
Description: The remaining operations were similar to those of the above experiment, and the compound treatment was as follows:
• For H460 cell line, 1% DMSO, adding 5 µM Nutlin-3 for treatment for 22 hours, adding 0.03 nM AST-3424 for treatment for 24 hours, adding 0.1 nM AST-3424 for treatment for 24 hours, adding 0.3 nM AST-3424 for treatment for 24 hours, and adding 1 nM AST-3424 for treatment for 24 hours; • For A549 cell line, 1% DMSO, adding 5 µM Nutlin-3 for treatment for 22 hours, adding 0.3 nM AST-3424 for treatment for 24 hours, adding 1 nM AST-3424 for treatment for 24 hours, adding […] AST-3424 for treatment for 24 hours.
For A549 cell line, • Adding 0.3 nM AST-3424 for pre-treatment for 2 hours, and then adding 5 µM Nutlin-3 for co-treatment for 22 hours; • Adding 1 nM AST-3424 for pre-treatment for 2 hours, and then adding 5 µM Nutlin-3 for co-treatment for 22 hours; • Adding 3 nM AST-3424 for pre-treatment for 2 hours, and then adding 5 µM Nutlin-3 for co-treatment for 22 hours; • Adding 9 nM AST-3424 for pre-treatment for 2 hours, and then adding 5 µM Nutlin-3 for co-treatment for 22 hours.

C[C@H](OP(=O)(N1CC1)N1CC1)c1ccc([N+](=O)[O-])c(Oc2cccc(C(=O)N(C)C)c2)c1 [AST-3424]
cell cycle (G0/G1, S, G2/M phases) (H460 cells; 0.1 nM AST-3424, 5 µM Nutlin-3, 24 hours, combination: AST-3424 added first (Figure 9)): does not significantly alter the cell cycle | G2/M cell cycle arrest (H460 cells; 0.03-1 nM AST-3424 ± 5 µM Nutlin-3 (AST-3424 pre-treatment 2 hours), second experiment (Figure 10)): induces concentration-dependent G2/M cell cycle arrest | G2/M cell cycle arrest (A549 cells): induces concentration-dependent G2/M cell cycle arrest
